In ChEMBL document CHEMBL1135326, “Structure-activity relationship studies of ethyl 2-[(3-methyl-2,5-dioxo(3-pyrrolinyl))amino]-4-(trifluoromethyl)pyrimidine-5-carboxylate: an inhibitor of AP-1 and NF-kappaB mediated gene expression” (Bioorg Med Chem Lett, 2002):

The compounds below were run on Jurkat (assay: Inhibition of AP-1 and NF-kB-mediated transcriptional activation in Jurkat cells). Conditions: Homo sapiens, Jurkat.
Type: functional, cell-based, Homo sapiens

IC50	Structure (SMILES)
200 nM	CCOC(=O)c1cnc(NN2C(=O)C=C(C)C2=O)nc1-c1ccsc1
800 nM	CCOC(=O)c1cnc(NN2C(=O)C=C(C)C2=O)nc1-c1cc2ccccc2s1
120 nM	CCc1nc(NN2C(=O)C=C(C)C2=O)ncc1C(=O)OC1CC1
2800 nM	CCc1nc(NN2C(=O)C=C(C)C2=O)ncc1-c1ncc(-c2ccccc2)o1
1200 nM	CCOC(=O)c1cnc(NN2C(=O)C=C(C)C2=O)nc1-c1ccccc1
140 nM	CCOC(=O)c1cnc(NN2C(=O)C=C(C)C2=O)nc1-c1cccs1
1000 nM	CCOC(=O)c1cnc(NN2C(=O)C=C(C)C2=O)nc1-c1ccco1
400 nM	CCOC(=O)c1cnc(NN2C(=O)C=C(C)C2=O)nc1CC
590 nM	CCOC(=O)c1cnc(N(C(=O)NC)N2C(=O)C=C(C)C2=O)nc1C(F)(F)F
450 nM	CCOC(=O)c1cnc(N(Cc2ccccc2)N2C(=O)C=C(C)C2=O)nc1C(F)(F)F
350 nM	CCOC(=O)c1cnc(N(C)N2C(=O)C=C(C)C2=O)nc1-c1ccc(C)s1
630 nM	CCc1nc(N(C)N2C(=O)C=C(C)C2=O)ncc1COC
1700 nM	CCOC(=O)c1cnc(N(C)N2C(=O)C=C(C)C2=O)nc1-c1nccs1
300 nM	CCOC(=O)c1cnc(N(C)N2C(=O)C=C(C)C2=O)nc1C(F)(F)F
45 nM	CCOC(=O)c1cnc(NN2C(=O)C=C(C)C2=O)nc1-c1ccc(C)s1
350 nM	CCOC(=O)c1cnc(N(C)N2C(=O)C=C(C)C2=O)nc1C(F)(F)C(F)(F)F
410 nM	CCOC(=O)c1cnc(N(C(C)=O)N2C(=O)C=C(C)C2=O)nc1C(F)(F)F
830 nM	CCOC(=O)c1cnc(N(C(=O)c2ccccc2)N2C(=O)C=C(C)C2=O)nc1C(F)(F)F
35 nM	CCOC(=O)c1cnc(N(C)N2C(=O)C=C(C)C2=O)nc1CC
430 nM	CCCc1nc(N(C(C)=O)N2C(=O)C=C(C)C2=O)ncc1C(=O)OCC
120 nM	CCOC(=O)c1cnc(N(C)N2C(=O)C=C(C)C2=O)nc1-c1ccsc1
450 nM	CCCC(=O)c1cnc(NN2C(=O)C=C(C)C2=O)nc1CC
410 nM	CCc1nc(N(C)N2C(=O)C=C(C)C2=O)ncc1C(=O)c1ccccc1
650 nM	CCc1nc(NN2C(=O)C=C(C)C2=O)ncc1C(=O)c1ccccc1
3700 nM	CCOC(=O)c1cnc(NN2C(=O)C=C(c3ccccc3)C2=O)nc1C(F)(F)F
94 nM	CCOC(=O)c1cnc(N(C)N2C(=O)C=C(C)C2=O)nc1-c1cccs1
98 nM	CC1=CC(=O)N(Nc2ncc(C(=O)c3ccccc3)c(C(F)(F)F)n2)C1=O
3800 nM	CCOC(=O)c1cnc(NN2C(=O)C=C(C)C2=O)nc1Cc1ccccc1
130 nM	CCOC(=O)c1cnc(N(C)N2C(=O)C=C(C)C2=O)nc1-c1cc2ccccc2s1

Further lines, the compound ahead of its results:

Structure (SMILES)	IC50
CCOC(=O)c1cnc(NN2C(=O)C=C(C)C2=O)nc1COC	6000 nM
CCc1nc(NN2C(=O)C=C(C)C2=O)ncc1-c1nnc(C)o1	10000 nM
CC1=CC(=O)N(Nc2ncc(C(N)=O)c(C(F)(F)F)n2)C1=O	30000 nM
CCOC(=O)c1cnc(NN2C(=O)C=C(C)C2=O)nc1C1CC1	1500 nM
CCc1nc(NN2C(=O)C=C(C)C2=O)ncc1-c1cc(C)no1	10000 nM
CCOC(=O)c1cnc(NN2C(=O)C=C(C)C2=O)nc1	13000 nM
CCc1nc(NN2C(=O)C=C(C)C2=O)ncc1-c1nc(C)co1	830 nM
CCc1nc(NN2C(=O)C=C(C)C2=O)ncc1C#N	1100 nM
CCOC(=O)c1cnc(NN2C(=O)C=C(C)C2=O)nc1-c1ccc(Cl)s1	520 nM
CCc1nc(NN2C(=O)C=C(C)C2=O)ncc1-c1nnn(C)n1	10000 nM
CCOC(=O)c1cnc(NN2C(=O)CCC2=O)nc1C(F)(F)F	1600 nM
CCOC(=O)c1cnc(NN2C(=O)C=C(C)C2=O)nc1C	1900 nM
CCOC(=O)c1cnc(NN2C(=O)C=C(C)C2=O)nc1C(F)(F)C(F)(F)F	200 nM
CC(=O)c1cnc(NN2C(=O)C=C(C)C2=O)nc1C(F)(F)F	4400 nM
CCOC(=O)c1cnc(N)nc1C(F)(F)F	30000 nM
CC1=CC(=O)N(Nc2ncc(C(=O)OC(C)(C)C)c(-c3cccs3)n2)C1=O	50 nM
CCOC(=O)c1cnc(N(C(=O)OCC)N2C(=O)C=C(C)C2=O)nc1C(F)(F)F	380 nM
CCOC(=O)c1cnc(NN2C(=O)C=C(C)C2=O)nc1-c1nccs1	2200 nM
CCc1nc(NN2C(=O)C=C(C)C2=O)ncc1CO	4900 nM
CC1=CC(=O)N(Nc2ncc(C(=O)N(C)C)c(C(F)(F)F)n2)C1=O	30000 nM
CCOC(=O)c1cnc(NN2C(=O)C(C)=C(C)C2=O)nc1C(F)(F)F	3900 nM
CCOC(=O)c1cnc(NN2C(=O)C=C(C)C2=O)nc1C(F)(F)F	2000 nM
CC1=CC(=O)N(Nc2ncc(C(=O)OC(C)(C)C)c(C(F)(F)F)n2)C1=O	210 nM
CC1=CC(=O)N(Nc2ncc(C(=O)O)c(C(F)(F)F)n2)C1=O	30000 nM
CC1=CC(=O)N(Nc2ncc(-c3nc(C)co3)c(-c3cccs3)n2)C1=O	760 nM
CC(=O)c1cnc(NN2C(=O)C=C(C)C2=O)nc1C	7700 nM

Same assay, conditions: jurkat

IC50	Structure (SMILES)
450 nM	CCOC(=O)c1cnc(N(C)N2C(=O)C=C(C)C2=O)nc1C(F)(F)C(F)(F)F
